Data taken from ChEMBL document CHEMBL5212743, “Selectivity Literature for EUbOPEN Chemogenomics Library wave 3” (2023).

How the values were obtained:
[1] = target: RNA 5'-monophosphate methyltransferase (Homo sapiens) (UniProt Q7Z5W3); settings: at 50 µM
[2] = target: Protein arginine N-methyltransferase 6 (Homo sapiens, UniProt Q96LA8)
[3] = target: Histone-arginine methyltransferase CARM1 (Homo sapiens) (UniProt Q86X55)
[4] = target: Sodium channel protein type 2 subunit alpha (Homo sapiens, UniProt Q99250); settings: at 10 µM
[5] = target: Sigma non-opioid intracellular receptor 1 (Homo sapiens, UniProt Q99720); experiment: Selectivity interaction (GPCR panel (PDSP screen)) EUB0000103c SIGMAR1
[6] = target: Sigma intracellular receptor 2 (Homo sapiens, UniProt Q5BJF2); experiment: Selectivity interaction (GPCR panel (PDSP screen)) EUB0000103c TMEM97
Activated CDC42 kinase 1 = Activated CDC42 kinase 1 (Homo sapiens, UniProt Q07912); experiment: Selectivity interaction (Z’-LYTE assay (SelectScreen Invitrogen)) EUB0000690a TNK2
[7] = target: Leukocyte tyrosine kinase receptor (Homo sapiens, UniProt P29376); experiment: Selectivity interaction (Z’-LYTE assay (SelectScreen Invitrogen)) EUB0000690a LTK
[8] = target: High affinity nerve growth factor receptor (Homo sapiens, UniProt P04629); experiment: Selectivity interaction (Z’-LYTE assay (SelectScreen Invitrogen)) EUB0000690a NTRK1
[9] = target: Tyrosine-protein kinase Fer (Homo sapiens, UniProt P16591); experiment: Selectivity interaction (Z’-LYTE assay (SelectScreen Invitrogen)) EUB0000690a FER
[10] = target: Protein-tyrosine kinase 2-beta (Homo sapiens, UniProt Q14289); experiment: Selectivity interaction (Z’-LYTE assay (SelectScreen Invitrogen)) EUB0000690a PTK2B
[11] = target: Tyrosine-protein kinase FRK (Homo sapiens, UniProt P42685); experiment: Selectivity interaction (Z’-LYTE assay (SelectScreen Invitrogen)) EUB0000690a FRK
[12] = target: Epidermal growth factor receptor (Homo sapiens, UniProt P00533, L858R); experiment: (§1) Selectivity interaction (Z’-LYTE assay (SelectScreen Invitrogen)) EUB0000690a EGFR
[13] = target: Epidermal growth factor receptor (Homo sapiens, UniProt P00533, T790M); experiment: as §1
Focal adhesion kinase 1 = Focal adhesion kinase 1 (Homo sapiens, UniProt Q05397); experiment: Selectivity interaction (Z’-LYTE assay (SelectScreen Invitrogen)) EUB0000690a PTK2
[14] = target: NT-3 growth factor receptor (Homo sapiens, UniProt Q16288); experiment: Selectivity interaction (Z’-LYTE assay (SelectScreen Invitrogen)) EUB0000690a NTRK3
[15] = target: Tyrosine-protein kinase Fes/Fps (Homo sapiens, UniProt P07332); experiment: Selectivity interaction (Z’-LYTE assay (SelectScreen Invitrogen)) EUB0000690a FES
[16] = target: Tyrosine-protein kinase JAK2 (Homo sapiens, UniProt O60674); experiment: Selectivity interaction (Z’-LYTE assay (SelectScreen Invitrogen)) EUB0000690a JAK2
[17] = target: Dual specificity tyrosine-phosphorylation-regulated kinase 2 (Homo sapiens, UniProt Q92630); experiment: Selectivity interaction (NanoBRET assay (HEK293T cells)) EUB0000009b DYRK2
[18] = target: Dual specificity protein kinase CLK2 (Homo sapiens, UniProt P49760); experiment: Selectivity interaction (NanoBRET assay (HEK293T cells)) EUB0000009b CLK2
[19] = target: Dual specificity tyrosine-phosphorylation-regulated kinase 1B (Homo sapiens, UniProt Q9Y463); experiment: Selectivity interaction (NanoBRET assay (HEK293T cells)) EUB0000009b DYRK1B
[20] = target: Dual specificity tyrosine-phosphorylation-regulated kinase 1A (Homo sapiens, UniProt Q13627); experiment: Selectivity interaction (NanoBRET assay (HEK293T cells)) EUB0000009b DYRK1A
[21] = target: Sodium-dependent dopamine transporter (Homo sapiens, UniProt Q01959); experiment: Selectivity interaction (GPCR panel (PDSP screen)) EUB0000717a SLC6A3
[22] = target: BMP-2-inducible protein kinase (Homo sapiens) (UniProt Q9NSY1); experiment: Selectivity interaction (KinomeScan (DiscoverX)) EUB0000717a BMP2K; settings: at 1 µM
[23] = target: T1, Cyclin-G-associated kinase (Homo sapiens) (UniProt O14976); experiment: Selectivity interaction (KinomeScan (DiscoverX)) EUB0000717a GAK; settings: at 1 µM
T1 sequence (whole entry): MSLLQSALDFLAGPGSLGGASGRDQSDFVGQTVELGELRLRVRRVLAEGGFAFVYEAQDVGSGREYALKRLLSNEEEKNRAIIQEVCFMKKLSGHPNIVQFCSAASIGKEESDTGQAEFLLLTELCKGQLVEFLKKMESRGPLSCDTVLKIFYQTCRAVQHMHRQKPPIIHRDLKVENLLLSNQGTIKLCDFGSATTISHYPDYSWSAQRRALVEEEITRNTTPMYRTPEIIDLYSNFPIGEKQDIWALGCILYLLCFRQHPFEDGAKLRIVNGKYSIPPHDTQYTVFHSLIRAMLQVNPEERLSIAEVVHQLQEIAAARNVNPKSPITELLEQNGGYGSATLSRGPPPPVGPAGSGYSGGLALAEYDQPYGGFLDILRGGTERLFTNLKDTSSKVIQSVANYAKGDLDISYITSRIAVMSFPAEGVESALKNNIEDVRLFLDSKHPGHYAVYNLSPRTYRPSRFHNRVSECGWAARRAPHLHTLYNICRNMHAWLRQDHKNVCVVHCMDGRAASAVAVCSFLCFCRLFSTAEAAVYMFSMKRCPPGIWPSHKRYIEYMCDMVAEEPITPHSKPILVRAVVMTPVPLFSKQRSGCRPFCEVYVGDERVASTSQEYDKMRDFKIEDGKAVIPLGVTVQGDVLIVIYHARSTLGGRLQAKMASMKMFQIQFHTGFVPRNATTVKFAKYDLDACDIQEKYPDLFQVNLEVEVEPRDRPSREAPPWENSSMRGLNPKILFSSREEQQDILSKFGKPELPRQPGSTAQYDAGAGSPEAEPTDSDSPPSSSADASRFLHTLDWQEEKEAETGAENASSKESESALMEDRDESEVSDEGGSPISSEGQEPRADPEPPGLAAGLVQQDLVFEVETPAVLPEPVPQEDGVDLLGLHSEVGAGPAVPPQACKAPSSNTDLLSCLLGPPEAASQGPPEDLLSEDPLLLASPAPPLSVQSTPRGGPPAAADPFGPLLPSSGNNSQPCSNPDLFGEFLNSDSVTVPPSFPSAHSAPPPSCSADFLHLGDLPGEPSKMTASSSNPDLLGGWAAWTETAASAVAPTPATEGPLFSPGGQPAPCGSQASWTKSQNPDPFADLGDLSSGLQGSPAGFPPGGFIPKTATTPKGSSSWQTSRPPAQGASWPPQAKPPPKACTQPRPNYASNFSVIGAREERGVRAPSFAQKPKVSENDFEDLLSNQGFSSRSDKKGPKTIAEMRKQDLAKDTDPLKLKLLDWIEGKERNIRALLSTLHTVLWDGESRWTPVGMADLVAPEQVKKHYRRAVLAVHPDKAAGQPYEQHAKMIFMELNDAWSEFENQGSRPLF

[24] = target: Sodium-dependent noradrenaline transporter (Homo sapiens, UniProt P23975); settings: at 10 µM
[25] = target: Kappa-type opioid receptor (Homo sapiens, UniProt P41145); settings: at 10 µM
[26] = target: T2, Adenosine receptor A1 (Homo sapiens) (UniProt P30542); settings: at 10 µM
T2 sequence (whole entry): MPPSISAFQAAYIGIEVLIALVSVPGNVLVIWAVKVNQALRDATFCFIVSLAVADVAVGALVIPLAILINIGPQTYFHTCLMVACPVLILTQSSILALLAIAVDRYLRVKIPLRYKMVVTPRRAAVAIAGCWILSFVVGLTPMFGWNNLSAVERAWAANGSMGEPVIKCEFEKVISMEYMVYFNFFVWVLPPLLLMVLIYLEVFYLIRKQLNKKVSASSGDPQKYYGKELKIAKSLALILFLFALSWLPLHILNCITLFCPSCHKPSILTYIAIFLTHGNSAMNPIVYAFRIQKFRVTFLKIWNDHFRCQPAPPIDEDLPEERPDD

[27] = target: T3, Bromodomain-containing protein 4 (Homo sapiens, UniProt O60885); experiment: Selectivity interaction (ITC) EUB0000205c BRD4
[28] = target: T3, Bromodomain-containing protein 4; experiment: Selectivity interaction (ITC) EUB0000195c BRD4
[29] = target: Bromodomain-containing protein 2 (Homo sapiens) (UniProt P25440); experiment: Selectivity interaction (Bromodomain panel (DSF assay)) EUB0000195c BRD2
[30] = target: Histone acetyltransferase p300 (Homo sapiens) (UniProt Q09472); experiment: Selectivity interaction (DSF assay) EUB0000195c EP300
[31] = target: Bromodomain-containing protein 3 (Homo sapiens) (UniProt Q15059); experiment: Selectivity interaction (Bromodomain panel (DSF assay)) EUB0000195c BRD3
[32] = target: T4, Muscarinic acetylcholine receptor M2 (Homo sapiens) (UniProt P08172); experiment: Selectivity interaction (CEREP panel (nuclear receptors, ion channels, and […] other enzymes, including 10 kinases, 9 proteases, and 5 phosphodiesterases)) EUB0000195c CHRM2; settings: at 10 µM
T4 sequence (whole entry): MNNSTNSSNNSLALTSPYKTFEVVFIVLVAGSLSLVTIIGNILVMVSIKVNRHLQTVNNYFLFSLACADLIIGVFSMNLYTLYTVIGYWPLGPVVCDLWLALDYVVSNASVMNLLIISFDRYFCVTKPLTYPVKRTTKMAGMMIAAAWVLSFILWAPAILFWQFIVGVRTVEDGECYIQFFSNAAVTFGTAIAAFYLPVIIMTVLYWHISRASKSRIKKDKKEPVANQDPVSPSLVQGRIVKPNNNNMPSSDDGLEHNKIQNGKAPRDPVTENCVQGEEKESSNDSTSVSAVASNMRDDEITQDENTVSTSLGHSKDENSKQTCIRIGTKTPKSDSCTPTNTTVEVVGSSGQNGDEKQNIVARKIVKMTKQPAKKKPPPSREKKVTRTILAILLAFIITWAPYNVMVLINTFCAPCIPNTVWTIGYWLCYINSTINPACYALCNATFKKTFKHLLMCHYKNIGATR

[33] = target: T5, Alpha-1A adrenergic receptor (Homo sapiens) (UniProt P35348); experiment: Selectivity interaction (CEREP panel (nuclear receptors, ion channels, and […] other enzymes, including 10 kinases, 9 proteases, and 5 phosphodiesterases)) EUB0000195c ADRA1A; settings: at 10 µM
T5 sequence (whole entry): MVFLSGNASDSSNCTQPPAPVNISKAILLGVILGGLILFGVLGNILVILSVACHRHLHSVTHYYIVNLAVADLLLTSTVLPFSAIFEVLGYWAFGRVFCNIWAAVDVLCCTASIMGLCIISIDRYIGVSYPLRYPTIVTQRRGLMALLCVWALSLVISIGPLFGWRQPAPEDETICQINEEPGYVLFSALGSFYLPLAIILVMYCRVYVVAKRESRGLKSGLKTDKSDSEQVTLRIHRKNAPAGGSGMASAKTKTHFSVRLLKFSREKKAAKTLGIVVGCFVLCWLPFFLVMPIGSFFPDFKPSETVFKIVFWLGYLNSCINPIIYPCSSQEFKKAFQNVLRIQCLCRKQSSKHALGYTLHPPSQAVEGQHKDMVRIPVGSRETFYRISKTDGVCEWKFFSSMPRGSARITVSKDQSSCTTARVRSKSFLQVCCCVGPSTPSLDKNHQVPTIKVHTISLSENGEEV

CREB-binding protein [34] = target: T6, CREB-binding protein (Homo sapiens, UniProt Q92793)
Target sequence in this assay (Q92793 whole entry): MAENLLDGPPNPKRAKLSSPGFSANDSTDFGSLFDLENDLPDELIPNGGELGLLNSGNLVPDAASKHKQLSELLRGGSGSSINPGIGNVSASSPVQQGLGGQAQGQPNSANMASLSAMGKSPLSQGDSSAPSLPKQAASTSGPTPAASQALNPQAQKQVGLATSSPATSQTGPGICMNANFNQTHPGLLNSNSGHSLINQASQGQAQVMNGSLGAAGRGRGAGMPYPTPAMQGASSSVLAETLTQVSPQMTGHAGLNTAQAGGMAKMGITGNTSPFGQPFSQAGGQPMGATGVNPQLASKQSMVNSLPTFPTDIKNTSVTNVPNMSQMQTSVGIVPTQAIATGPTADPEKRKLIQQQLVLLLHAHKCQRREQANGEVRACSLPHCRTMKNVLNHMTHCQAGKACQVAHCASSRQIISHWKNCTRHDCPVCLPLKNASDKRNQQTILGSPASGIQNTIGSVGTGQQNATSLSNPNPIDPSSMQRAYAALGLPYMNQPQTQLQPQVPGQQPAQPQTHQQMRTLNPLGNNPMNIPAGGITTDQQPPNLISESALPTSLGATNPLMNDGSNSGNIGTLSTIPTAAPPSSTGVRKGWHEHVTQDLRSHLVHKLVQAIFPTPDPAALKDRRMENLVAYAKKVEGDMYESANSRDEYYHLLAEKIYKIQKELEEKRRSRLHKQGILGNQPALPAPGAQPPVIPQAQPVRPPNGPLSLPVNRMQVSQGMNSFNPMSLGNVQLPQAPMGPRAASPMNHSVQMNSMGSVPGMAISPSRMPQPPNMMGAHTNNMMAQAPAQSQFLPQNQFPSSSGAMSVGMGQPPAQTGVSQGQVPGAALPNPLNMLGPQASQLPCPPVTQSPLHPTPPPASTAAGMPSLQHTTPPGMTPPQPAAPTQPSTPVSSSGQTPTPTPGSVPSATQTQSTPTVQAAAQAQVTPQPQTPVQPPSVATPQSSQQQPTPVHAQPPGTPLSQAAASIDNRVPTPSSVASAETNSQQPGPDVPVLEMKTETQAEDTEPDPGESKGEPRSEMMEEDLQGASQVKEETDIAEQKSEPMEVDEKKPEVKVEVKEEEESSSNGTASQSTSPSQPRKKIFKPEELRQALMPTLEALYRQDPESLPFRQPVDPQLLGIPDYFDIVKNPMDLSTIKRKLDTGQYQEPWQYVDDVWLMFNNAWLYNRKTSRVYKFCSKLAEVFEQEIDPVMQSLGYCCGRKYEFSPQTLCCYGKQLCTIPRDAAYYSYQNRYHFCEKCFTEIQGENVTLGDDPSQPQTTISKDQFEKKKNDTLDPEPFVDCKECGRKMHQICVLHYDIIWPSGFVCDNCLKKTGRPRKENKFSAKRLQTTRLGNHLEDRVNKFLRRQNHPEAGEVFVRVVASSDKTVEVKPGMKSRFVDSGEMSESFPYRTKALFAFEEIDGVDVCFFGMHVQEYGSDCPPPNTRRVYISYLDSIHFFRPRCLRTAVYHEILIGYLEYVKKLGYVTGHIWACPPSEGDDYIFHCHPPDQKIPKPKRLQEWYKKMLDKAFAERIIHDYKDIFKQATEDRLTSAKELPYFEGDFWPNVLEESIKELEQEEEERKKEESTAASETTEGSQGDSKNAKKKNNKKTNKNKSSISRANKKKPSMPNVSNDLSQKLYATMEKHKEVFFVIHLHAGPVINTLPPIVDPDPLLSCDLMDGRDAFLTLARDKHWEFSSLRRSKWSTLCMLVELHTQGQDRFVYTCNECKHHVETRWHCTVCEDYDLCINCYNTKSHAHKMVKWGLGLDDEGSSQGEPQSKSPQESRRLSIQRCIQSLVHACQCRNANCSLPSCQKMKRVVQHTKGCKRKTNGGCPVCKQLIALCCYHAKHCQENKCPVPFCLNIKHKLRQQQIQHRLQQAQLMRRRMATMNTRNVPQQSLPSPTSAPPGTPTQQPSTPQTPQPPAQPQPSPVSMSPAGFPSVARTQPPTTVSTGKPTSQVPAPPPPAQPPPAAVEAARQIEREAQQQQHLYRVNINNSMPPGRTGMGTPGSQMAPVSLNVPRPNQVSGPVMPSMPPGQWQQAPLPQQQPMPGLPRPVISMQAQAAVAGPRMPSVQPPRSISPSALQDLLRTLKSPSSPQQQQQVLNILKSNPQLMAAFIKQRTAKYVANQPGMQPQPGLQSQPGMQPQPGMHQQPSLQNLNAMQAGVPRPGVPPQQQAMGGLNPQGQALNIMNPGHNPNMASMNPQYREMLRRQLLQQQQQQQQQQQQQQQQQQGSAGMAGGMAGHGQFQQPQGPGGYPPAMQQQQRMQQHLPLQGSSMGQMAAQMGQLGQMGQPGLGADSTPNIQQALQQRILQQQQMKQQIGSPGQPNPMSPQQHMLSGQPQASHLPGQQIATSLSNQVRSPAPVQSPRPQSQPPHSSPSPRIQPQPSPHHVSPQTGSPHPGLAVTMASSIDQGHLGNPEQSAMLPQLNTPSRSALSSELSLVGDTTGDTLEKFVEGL

[35] = target: T3, Bromodomain-containing protein 4; experiment: (§2) Selectivity interaction (Bromodomain panel (DSF assay)) EUB0000195c BRD4
CREB-binding protein [36] = target: T6, CREB-binding protein; remark: listed apart in the source
[37] = target: T3, Bromodomain-containing protein 4; experiment: as §2; remark: listed apart in the source

Sequence of Histone-arginine methyltransferase CARM1 (Homo sapiens) (Q86X55 whole entry): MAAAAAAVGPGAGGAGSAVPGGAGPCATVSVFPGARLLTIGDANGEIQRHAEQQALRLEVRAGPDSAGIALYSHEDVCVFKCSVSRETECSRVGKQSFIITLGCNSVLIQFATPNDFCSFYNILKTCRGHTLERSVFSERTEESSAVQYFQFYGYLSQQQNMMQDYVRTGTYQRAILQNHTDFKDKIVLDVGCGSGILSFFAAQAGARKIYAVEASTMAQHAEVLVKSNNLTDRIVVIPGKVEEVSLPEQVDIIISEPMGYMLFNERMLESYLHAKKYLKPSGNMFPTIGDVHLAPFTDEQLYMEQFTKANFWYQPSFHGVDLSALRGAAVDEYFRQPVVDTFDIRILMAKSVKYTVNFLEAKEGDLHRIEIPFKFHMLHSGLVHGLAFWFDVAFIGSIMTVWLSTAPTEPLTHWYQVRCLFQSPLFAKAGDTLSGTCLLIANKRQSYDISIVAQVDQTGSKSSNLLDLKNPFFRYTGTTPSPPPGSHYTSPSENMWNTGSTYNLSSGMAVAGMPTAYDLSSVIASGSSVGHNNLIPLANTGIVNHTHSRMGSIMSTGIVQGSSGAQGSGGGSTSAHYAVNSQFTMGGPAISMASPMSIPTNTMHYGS
Sequence of Sodium channel protein type 2 subunit alpha (Q99250 whole entry, looked up): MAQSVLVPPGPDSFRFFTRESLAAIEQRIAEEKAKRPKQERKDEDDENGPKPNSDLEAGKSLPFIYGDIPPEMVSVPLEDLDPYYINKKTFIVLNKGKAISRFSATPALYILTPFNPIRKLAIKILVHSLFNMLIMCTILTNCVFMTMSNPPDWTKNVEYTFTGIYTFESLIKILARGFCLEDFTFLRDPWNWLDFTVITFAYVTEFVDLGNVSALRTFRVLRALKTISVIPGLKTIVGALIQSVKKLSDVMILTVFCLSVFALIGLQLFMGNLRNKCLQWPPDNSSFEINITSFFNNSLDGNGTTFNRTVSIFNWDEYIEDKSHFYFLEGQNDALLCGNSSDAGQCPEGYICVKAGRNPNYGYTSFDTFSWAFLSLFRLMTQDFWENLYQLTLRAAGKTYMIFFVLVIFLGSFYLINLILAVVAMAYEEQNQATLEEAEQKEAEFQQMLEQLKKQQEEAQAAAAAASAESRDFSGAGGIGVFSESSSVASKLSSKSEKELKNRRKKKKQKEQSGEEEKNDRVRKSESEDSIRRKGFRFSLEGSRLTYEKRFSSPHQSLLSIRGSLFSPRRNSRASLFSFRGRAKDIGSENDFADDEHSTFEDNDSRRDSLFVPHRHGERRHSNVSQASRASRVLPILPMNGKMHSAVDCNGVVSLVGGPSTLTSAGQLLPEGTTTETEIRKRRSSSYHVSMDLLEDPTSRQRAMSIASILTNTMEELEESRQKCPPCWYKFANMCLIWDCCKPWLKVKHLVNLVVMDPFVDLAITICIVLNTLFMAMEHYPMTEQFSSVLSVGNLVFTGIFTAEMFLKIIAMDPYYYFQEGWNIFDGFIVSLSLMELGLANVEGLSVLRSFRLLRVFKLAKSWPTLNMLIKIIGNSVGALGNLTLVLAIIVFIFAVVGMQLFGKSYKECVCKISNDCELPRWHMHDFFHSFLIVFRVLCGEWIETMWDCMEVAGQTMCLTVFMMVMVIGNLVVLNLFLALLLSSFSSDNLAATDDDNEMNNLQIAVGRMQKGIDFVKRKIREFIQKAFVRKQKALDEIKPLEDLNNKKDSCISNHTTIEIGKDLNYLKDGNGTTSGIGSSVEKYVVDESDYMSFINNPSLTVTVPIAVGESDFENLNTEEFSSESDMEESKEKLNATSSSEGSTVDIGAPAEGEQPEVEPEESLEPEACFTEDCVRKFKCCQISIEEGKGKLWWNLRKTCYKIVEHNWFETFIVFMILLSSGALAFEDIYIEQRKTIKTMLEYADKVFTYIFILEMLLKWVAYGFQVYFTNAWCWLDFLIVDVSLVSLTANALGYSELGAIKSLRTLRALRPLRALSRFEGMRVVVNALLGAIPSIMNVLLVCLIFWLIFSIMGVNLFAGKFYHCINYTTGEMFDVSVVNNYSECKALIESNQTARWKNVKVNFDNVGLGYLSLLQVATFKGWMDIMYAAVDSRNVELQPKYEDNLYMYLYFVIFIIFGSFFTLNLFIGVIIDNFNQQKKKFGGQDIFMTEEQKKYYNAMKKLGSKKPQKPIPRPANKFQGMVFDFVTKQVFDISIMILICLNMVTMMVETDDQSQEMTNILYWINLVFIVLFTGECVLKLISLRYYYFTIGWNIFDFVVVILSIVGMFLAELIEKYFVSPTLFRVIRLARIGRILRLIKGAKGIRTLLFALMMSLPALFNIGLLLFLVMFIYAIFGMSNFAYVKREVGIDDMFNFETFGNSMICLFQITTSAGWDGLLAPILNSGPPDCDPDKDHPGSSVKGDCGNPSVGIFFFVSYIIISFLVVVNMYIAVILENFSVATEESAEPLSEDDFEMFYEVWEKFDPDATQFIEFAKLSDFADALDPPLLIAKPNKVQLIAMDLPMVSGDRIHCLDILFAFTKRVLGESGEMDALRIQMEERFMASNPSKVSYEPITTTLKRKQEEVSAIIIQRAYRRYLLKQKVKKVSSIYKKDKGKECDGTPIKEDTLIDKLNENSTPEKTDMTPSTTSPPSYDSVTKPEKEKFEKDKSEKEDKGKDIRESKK

**Q.** Which results are given for CNCCN1CCC(OCc2ccccc2)CC1?
**A.** % activity remaining [1]: 78%; dTm [2]: 11.3 K; dTm [3]: 3.3 K; inhibition [4]: 31%; Ki [5]: 54 nM; Ki [6]: 574 nM

**Q.** How did the Ki (Activated CDC42 kinase 1) turn out when C[C@H]1Oc2cc(cnc2N)-c2c(nn(C)c2C#N)CN(C)C(=O)c2ccc(F)cc21 [LORLATINIB] was run?
**A.** 17 nM

**Q.** And the Ki [7]?
**A.** 2.7 nM

**Q.** What about the Ki [8] of the same molecule?
**A.** 24 nM

**Q.** What about the Ki [9] of the same molecule?
**A.** 3.3 nM

**Q.** And the Ki [10]?
**A.** 14 nM

**Q.** What about the Ki [11] of the same molecule?
**A.** 53 nM

**Q.** What about the Ki [12] of the same molecule?
**A.** 56 nM

**Q.** And the Ki [13]?
**A.** 319 nM

**Q.** And the Ki (Focal adhesion kinase 1)?
**A.** 17 nM

**Q.** What about the Ki [14] of the same molecule?
**A.** 46 nM

**Q.** What about the Ki [15] of the same molecule?
**A.** 6 nM

**Q.** And the Ki [16]?
**A.** 529 nM

**Q.** For Cn1cc(-c2ccc3occ(-c4ccccc4-c4ccccc4)c3n2)cn1, which Ki [17] is on record?
**A.** > 10000 nM

**Q.** What about the Ki [18] of the same molecule?
**A.** > 10000 nM

**Q.** And the Ki [19]?
**A.** > 10000 nM

**Q.** What about the Ki [20] of the same molecule?
**A.** > 10000 nM

**Q.** What does the source list for O=C1c2ccc(Nc3ccc(F)cc3F)cc2CCc2ccc(OC[C@H](O)CO)cc21 [Skepinone-L]?
**A.** Ki [21]: > 10000 nM; % of control [22]: 37%; % of control [23]: 53%

**Q.** How did the mean % of control [24] turn out when COc1cc(C#N)ccc1S(=O)(=O)Nc1ccc2c(c1)cc(C)c(=O)n2C was run?
**A.** 61%

**Q.** What about the mean % of control [25] of the same molecule?
**A.** 80%

**Q.** And the mean % of control [26]?
**A.** 62%

**Q.** What about the Kd [27] of the same molecule?
**A.** 3900 nM

**Q.** Which results are given for CCC(=O)N1CCOc2c(cc(-c3ccc(OC)c(OC)c3)cc2OC[C@H]2CCCN(C)C2)C1?
**A.** Kd [28]: > 20000 nM; dTm [29]: 1.35 K; dTm [30]: 8.6 K; dTm [31]: 1.55 K; % of inhibition [32]: 67%; % of inhibition [33]: 89%; Kd (CREB-binding protein [34]): 170 nM; dTm [35]: 0.58 K; dTm (CREB-binding protein [36]): 7.8 K; dTm [37]: 2.09 K
